According to patent publication US6965033B2, “Bisamidate phosphonate prodrugs” (Metabasis Therapeutics, Inc., priority 1999, dated 2005):
pIC50: −log10 of the molar value. Where two headings read alike, the source gives them in different places. Blank lines part the entries; values can stand above or below the compound they belong to.

How the values were obtained:
[1] = molecular target: T1, rat liver FBPase (Rattus norvegicus, UniProt P19112); assay: Inhibition of Rat Liver FBPase; assay type: biochemical; details: read-out: IC50 (rlFBPase)
T1 construct: made in house; host or cells: E. coli BL21
T1 sequence (P19112 2-363 limits assumed): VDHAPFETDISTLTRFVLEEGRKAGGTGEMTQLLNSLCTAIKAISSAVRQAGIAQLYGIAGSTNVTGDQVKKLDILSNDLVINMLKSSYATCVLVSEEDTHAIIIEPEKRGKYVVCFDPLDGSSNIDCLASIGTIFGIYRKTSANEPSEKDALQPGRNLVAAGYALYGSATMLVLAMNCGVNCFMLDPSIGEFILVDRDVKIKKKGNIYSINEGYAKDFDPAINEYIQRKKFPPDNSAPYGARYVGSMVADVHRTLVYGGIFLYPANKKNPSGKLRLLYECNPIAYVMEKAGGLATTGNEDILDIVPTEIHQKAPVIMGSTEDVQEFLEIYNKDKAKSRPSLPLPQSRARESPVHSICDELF
Experimental: E. coli strain BL21 transformed with a human liver FBPase-encoding plasmid was obtained from Dr. M. R. El-Maghrabi at the State University of New York at Stony Brook. The enzyme was typically purified from 10 liters of recombinant E. coli culture as described (M. Gidh-Jain et al., 1994, The Journal of Biological Chemistry 269, pp 27732-27738). Enzymatic activity was measured spectrophotometrically in reactions that coupled the formation of product (fructose 6-phosphate) to the reduction of dimethylthiazoldiphenyltetrazolium bromide (MTT) via NADP^+ and phenazine methosulfate (PMS), using phosphoglucose isomerase and glucose 6-phosphate dehydrogenase as the coupling enzymes. Reaction mixtures (200 μl) were made up in 96-well microtitre plates, and consisted of 50 mM Tris-HCl, pH 7.4, 100 mM KCl, 5 mM EGTA, 2 mM MgCl2, 0.2 mM NADP, 1 mg/ml BSA, 1 mM MTT, 0.6 mM PMS, 1 unit/ml phosphoglucose isomerase, 2 units/ml glucose 6-phosphate dehydrogenase, and 0.150 mM substrate (fructose 1,6-bisphosphate). Inhibitor concentrations were varied from 0.01 μM to 10 μM. Reactions were started by the addition of 0.002 units of pure hlFBPase, and were monitored for 7 minutes at 590 nm in a Molecular Devices Plate Reader (37° C.).
E. coli strain BL21 transformed with a rat liver FBPase-encoding plasmid was obtained from Dr. M. R. El-Maghrabi at the State University of New York at Stony Brook. Recombinant FBPase was purified as described (El-Maghrabi, M. R., and Pilkis, S. J. (1991) BioChem. Biophys. Res. Commun. 176, 137-144) The enzyme assay was identical to that described above for human liver FBPase.

[2] = system: rat hepatocytes; assay: Inhibition of Gluconeogenesis in Rat Hepatocytes; assay type: cell-based; details: isolated rat hepatocytes, 10 mM lactate, 1 mM pyruvate, 1 hour, read-out: IC50 Glucose Production
Experimental: Hepatocytes (75 mg wet weight/ml) were incubated in 1 ml Krebs-bicarbonate buffer containing 10 mM Lactate, 1 mM pyruvate, 1 mg/ml BSA, and test compound concentrations from 1 to 500 μM. […] After 1 hour, an aliquot (0.25 ml) was removed, transferred to an Eppendorf tube and centrifuged. 50 μl of supernatant was then assayed for glucose content using a Sigma Glucose Oxidase kit as per the manufacturer's instructions.

[3] = molecular target: T2, human liver FBPase (Homo sapiens, UniProt P09467); assay: Inhibition of Human Liver FBPase; assay type: biochemical; details: read-out: IC50 (hlFBPase)
T2 construct: made in house; host or cells: E. coli BL21
T2 sequence (P09467 2-338 limits assumed): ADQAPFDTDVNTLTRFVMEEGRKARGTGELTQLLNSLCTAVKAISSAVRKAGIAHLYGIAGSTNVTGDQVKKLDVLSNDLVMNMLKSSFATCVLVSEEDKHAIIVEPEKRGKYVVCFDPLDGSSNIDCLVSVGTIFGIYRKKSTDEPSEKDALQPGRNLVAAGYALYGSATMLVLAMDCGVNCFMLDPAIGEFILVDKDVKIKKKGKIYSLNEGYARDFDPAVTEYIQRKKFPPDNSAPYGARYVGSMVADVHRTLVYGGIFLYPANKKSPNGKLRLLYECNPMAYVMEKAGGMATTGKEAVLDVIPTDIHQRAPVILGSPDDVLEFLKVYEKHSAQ
Experimental: […] […] Enzymatic activity was measured spectrophotometrically in reactions that coupled the formation of product (fructose 6-phosphate) to the reduction of dimethylthiazoldiphenyltetrazolium bromide (MTT) via NADP^+ and phenazine methosulfate (PMS), using phosphoglucose isomerase and glucose 6-phosphate dehydrogenase as the coupling enzymes. […] Inhibitor concentrations were varied from 0.01 μM to 10 μM. Reactions were started by the addition of 0.002 units of pure hlFBPase, and were monitored for 7 minutes at 590 nm in a Molecular Devices Plate Reader (37° C.).

[4] = system: Zucker Diabetic Fatty (ZDF rat); assay: Acute Oral Efficacy in the ZDF Rat; assay type: in vivo; details: for Blood Glucose, T6h: 6 h after 60 mg/kg oral; for Blood Glucose, % Change: baseline to 6 h, 60 mg/kg oral; for Blood Glucose, Tbaseline: baseline, 60 mg/kg oral group
Experimental: Methods: ZDF rats were purchased from Genetics Inc (Indianapolis, Ind.) at 8 weeks of age. Animals were maintained under standard vivarium conditions and provided with Purina 5008 chow and water ad libitum. At 10-12 weeks of age, rats with blood glucose levels>500 mg/dl were selected and dosed orally either with vehicle (PEG 400), or prodrug (60 mg/kg). Blood glucose levels were monitored at regular intervals for 6 hours following dosing. Blood samples were taken from tail vein nicks and analyzed by means of a HemoCue glucose analyzer (Hemocue, Mission Viejo, Calif.). Statistical analysis was performed using the Student's t test. Means±standard error of the means are shown.

[5] = system: Human Liver Phosphoramidase; assay: Structure Activity Relationship of Human Liver Phosphoramidase (human liver homogenate); assay type: in vitro ADME; details: pH 7.4
Experimental: Human liver, purchased from the Anatomic Gift Foundation (Laurel, Md.), was homogenized in Krebs-bicarbonate buffer and clarified by a slow-speed centrifugation. Prodrug metabolism was evaluated in reaction mixtures containing human liver homogenate (4 mgs protein), 50 mM Tris-HCl, pH 7.4, 10 mM MgCl2, and 10 mM dithiothreitol. At various time intervals over the course of 2 hours, aliquots were removed from the reaction mixtures and deproteinated by addition of methanol to 60%. Following clarification by centrifugation, metabolites were analyzed by reverse phase HPLC with use of a Beckman Ultrasphere ODS column (4.6×150 mm) equipped with an Alltech All-Guard column. The column was equilibrated with 20 mM potassium phosphate, pH 6.2 and eluted with a linear gradient of 0-60% acetonitrile over 20 minutes at a flow rate of 1.5 mL/min and at a temperature of 40° C. UV absorbance was monitored at 300 nm. Most of the prodrugs evaluated were metabolized via a non-rate limiting, esterase-catalyzed step to their monophosphoramidate form within 5 minutes of incubation. The rate of phosphonic acid appearance was therefore essentially a reflection of the rate of the final […] cleavage step. Results for representative prodrugs for which the esterase-catalyzed step was non-rate limiting are shown below: […]

Compound: Cc1nc(-c2ccc(P(=O)(O)O)o2)c(CC(C)C)s1 [Compound 3.2, 2-Methyl-5-isobutyl-4-[2-(5-phosphono)furanyl]thiazole]
- pIC50 [1]: 5.60
- pIC50 ([2]; Hepatocyte): 4.59

Compound: CCCc1oc(N)nc1-c1ccc(P(=O)(O)O)o1 [Compound 10.2, 2-Amino-5-propyl-4-[2-(5-phosphono)furanyl]oxazole]
- pIC50 [1]: 5.60
- pIC50 ([2]; Hepatocyte): 4.80

Compound: CCCc1cnc(N)nc1-c1ccc(P(=O)(O)O)o1 [Compound 16.1, 2-amino-5-propyl-4-[2-(5-phosphono)furanyl]pyrimidine]
- pIC50 [3]: 7.22
- pIC50 [1]: 5.74
- pIC50 ([2]; Hepatocyte): 5.00
- melting point: 258 to 259 °C

Compound: CC(C)Cc1sc(N)nc1-c1ccc(P(=O)(N[C@@H](C)C(=O)OCc2ccccc2)N[C@@H](C)C(=O)OCc2ccccc2)o1 [Compound 50.2, 2-Amino-5-isobutyl-4-[2-(5-N,N-bis(L-alanine acid dibenzyl ester)phosphonoamido)furanyl]thiazole]
- pIC50 [2]: 5.68
- Blood Glucose, T6h [4]: 415 ± 15 mg/dL
- Blood Glucose, % Change [4]: −30%
- Blood Glucose, Tbaseline [4]: 591 ± 35 mg/dL

Compound: CCOC(=O)C(C)(C)NP(=O)(NC(C)(C)C(=O)OCC)c1ccc(-c2nc(N)sc2CC(C)C)o1 [Compound 50.9]
- pIC50 [2]: 5.66
- Blood Glucose, T6h [4]: 410 ± 18 mg/dL
- Blood Glucose, % Change [4]: −32%
- Blood Glucose, Tbaseline [4]: 602 ± 26 mg/dL

Compound: CCCSc1sc(N)nc1-c1ccc(P(=O)(NC(C)C(=O)OC(C)C)NC(C)C(=O)OC(C)C)o1 (stereo not drawn) [Compound 50.20, 2-Amino-5-propylthio-4-{2-[5-(N,N′-(1-methyl-ethoxycarbonyl)ethyl)phosphonamido]furanyl}thiazole]
- Phosphoramidase Activity (Rate of 3.1 or 3.58 production, nmoles/mn/mg liver protein) [5]: 0.085 nmoles/mn/mg liver protein

Compound: CCCSc1sc(N)nc1-c1ccc(P(=O)(N[C@@H](COC(C)(C)C)C(=O)OC)N[C@@H](COC(C)(C)C)C(=O)OC)o1 [Compound 52.8, 2-Amino-5-propylthio-4-{2-[5-(N,N′-bis(S)-1-methoxycarbonyl-2-(t-butoxy)ethyl)phosphonamido]furanyl}thiazole]
- Phosphoramidase Activity (Rate of 3.1 or 3.58 production, nmoles/mn/mg liver protein) [5]: 0.025 nmoles/mn/mg liver protein

Continued, values first:

- Phosphoramidase Activity (Rate of 3.1 or 3.58 production, nmoles/mn/mg liver protein) [5]: 0.019 nmoles/mn/mg liver protein
Compound: CCOC(=O)CNP(=O)(NCC(=O)OCC)c1ccc(-c2nc(N)sc2CC(C)C)o1 [Compound 50.8]

- Phosphoramidase Activity (Rate of 3.1 or 3.58 production, nmoles/mn/mg liver protein) [5]: 0.005 nmoles/mn/mg liver protein
Compound: CCOC(=O)CN(C)P(=O)(c1ccc(-c2nc(N)sc2CC(C)C)o1)N(C)CC(=O)OCC [Compound 50.10, 2-Amino-5-isobutyl-4-{2-[5-(N,N′-bis(ethoxycarbonylmethyl)-N,N′-dimethylphosphonamido)]furanyl}thiazole]

- Phosphoramidase Activity (Rate of 3.1 or 3.58 production, nmoles/mn/mg liver protein) [5]: 0.022 nmoles/mn/mg liver protein
Compound: COC(=O)[C@H](CC(C)C)NP(=O)(N[C@@H](CC(C)C)C(=O)OC)c1ccc(-c2nc(N)sc2CC(C)C)o1 [Compound 50.12, 2-Amino-5-isobutyl-4-{2-[5-(N,N′-bis((S)-1-methoxycarbonyl-3-methyl)butyl)phosphonamido]furanyl}thiazole]

- Phosphoramidase Activity (Rate of 3.1 or 3.58 production, nmoles/mn/mg liver protein) [5]: 0.029 nmoles/mn/mg liver protein
Compound: CCOC(=O)[C@H](Cc1ccccc1)NP(=O)(N[C@@H](Cc1ccccc1)C(=O)OCC)c1ccc(-c2nc(N)sc2CC(C)C)o1 [Compound 50.19, 2-Amino-5-isobutyl-4-{2-[5-(N,N′-bis((S)-1-ethoxycarbonyl-2-phenyl)ethyl)phosphonamido]furanyl}thiazole]

- Phosphoramidase Activity (Rate of 3.1 or 3.58 production, nmoles/mn/mg liver protein) [5]: 0.032 nmoles/mn/mg liver protein
Compound: CCCSc1sc(N)nc1-c1ccc(P(=O)(NC2(C(=O)OCC)CCCC2)NC2(C(=O)OCC)CCCC2)o1 [Compound 52.12, 2-Amino-propylthio-4-[2-{5-(N,N′-bis(1-ethoxycarbonyl)cyclopentyl)phosphonamido}furanyl]thiazole]

- Phosphoramidase Activity (Rate of 3.1 or 3.58 production, nmoles/mn/mg liver protein) [5]: 0.033 nmoles/mn/mg liver protein
Compound: CCCSc1sc(N)nc1-c1ccc(P(=O)(N[C@@H](CCC)C(=O)OCC)N[C@@H](CCC)C(=O)OCC)o1 [Compound 52.16]
